From patent US20220087996A1, “Histone acetylase p300 inhibitor and use thereof” (HINOVA PHARMACEUTICALS INC., priority 2018, published 2022)
Like-named read-outs stand apart in the source and are kept apart here.

Legend:
[1] = target: T1, histone acetylase p300 (Homo sapiens, UniProt Q09472); assay: Inhibitory activity on histone acetylase p300 (radioisotope FlashPlate); format: biochemical; conditions: enzyme 0.2 nM, peptide substrate 600 nM, [3H]-Ac-CoA 250 nM; read-out: IC50 against P300
T1 construct: purchased BPS
T1 sequence (Q09472 whole entry): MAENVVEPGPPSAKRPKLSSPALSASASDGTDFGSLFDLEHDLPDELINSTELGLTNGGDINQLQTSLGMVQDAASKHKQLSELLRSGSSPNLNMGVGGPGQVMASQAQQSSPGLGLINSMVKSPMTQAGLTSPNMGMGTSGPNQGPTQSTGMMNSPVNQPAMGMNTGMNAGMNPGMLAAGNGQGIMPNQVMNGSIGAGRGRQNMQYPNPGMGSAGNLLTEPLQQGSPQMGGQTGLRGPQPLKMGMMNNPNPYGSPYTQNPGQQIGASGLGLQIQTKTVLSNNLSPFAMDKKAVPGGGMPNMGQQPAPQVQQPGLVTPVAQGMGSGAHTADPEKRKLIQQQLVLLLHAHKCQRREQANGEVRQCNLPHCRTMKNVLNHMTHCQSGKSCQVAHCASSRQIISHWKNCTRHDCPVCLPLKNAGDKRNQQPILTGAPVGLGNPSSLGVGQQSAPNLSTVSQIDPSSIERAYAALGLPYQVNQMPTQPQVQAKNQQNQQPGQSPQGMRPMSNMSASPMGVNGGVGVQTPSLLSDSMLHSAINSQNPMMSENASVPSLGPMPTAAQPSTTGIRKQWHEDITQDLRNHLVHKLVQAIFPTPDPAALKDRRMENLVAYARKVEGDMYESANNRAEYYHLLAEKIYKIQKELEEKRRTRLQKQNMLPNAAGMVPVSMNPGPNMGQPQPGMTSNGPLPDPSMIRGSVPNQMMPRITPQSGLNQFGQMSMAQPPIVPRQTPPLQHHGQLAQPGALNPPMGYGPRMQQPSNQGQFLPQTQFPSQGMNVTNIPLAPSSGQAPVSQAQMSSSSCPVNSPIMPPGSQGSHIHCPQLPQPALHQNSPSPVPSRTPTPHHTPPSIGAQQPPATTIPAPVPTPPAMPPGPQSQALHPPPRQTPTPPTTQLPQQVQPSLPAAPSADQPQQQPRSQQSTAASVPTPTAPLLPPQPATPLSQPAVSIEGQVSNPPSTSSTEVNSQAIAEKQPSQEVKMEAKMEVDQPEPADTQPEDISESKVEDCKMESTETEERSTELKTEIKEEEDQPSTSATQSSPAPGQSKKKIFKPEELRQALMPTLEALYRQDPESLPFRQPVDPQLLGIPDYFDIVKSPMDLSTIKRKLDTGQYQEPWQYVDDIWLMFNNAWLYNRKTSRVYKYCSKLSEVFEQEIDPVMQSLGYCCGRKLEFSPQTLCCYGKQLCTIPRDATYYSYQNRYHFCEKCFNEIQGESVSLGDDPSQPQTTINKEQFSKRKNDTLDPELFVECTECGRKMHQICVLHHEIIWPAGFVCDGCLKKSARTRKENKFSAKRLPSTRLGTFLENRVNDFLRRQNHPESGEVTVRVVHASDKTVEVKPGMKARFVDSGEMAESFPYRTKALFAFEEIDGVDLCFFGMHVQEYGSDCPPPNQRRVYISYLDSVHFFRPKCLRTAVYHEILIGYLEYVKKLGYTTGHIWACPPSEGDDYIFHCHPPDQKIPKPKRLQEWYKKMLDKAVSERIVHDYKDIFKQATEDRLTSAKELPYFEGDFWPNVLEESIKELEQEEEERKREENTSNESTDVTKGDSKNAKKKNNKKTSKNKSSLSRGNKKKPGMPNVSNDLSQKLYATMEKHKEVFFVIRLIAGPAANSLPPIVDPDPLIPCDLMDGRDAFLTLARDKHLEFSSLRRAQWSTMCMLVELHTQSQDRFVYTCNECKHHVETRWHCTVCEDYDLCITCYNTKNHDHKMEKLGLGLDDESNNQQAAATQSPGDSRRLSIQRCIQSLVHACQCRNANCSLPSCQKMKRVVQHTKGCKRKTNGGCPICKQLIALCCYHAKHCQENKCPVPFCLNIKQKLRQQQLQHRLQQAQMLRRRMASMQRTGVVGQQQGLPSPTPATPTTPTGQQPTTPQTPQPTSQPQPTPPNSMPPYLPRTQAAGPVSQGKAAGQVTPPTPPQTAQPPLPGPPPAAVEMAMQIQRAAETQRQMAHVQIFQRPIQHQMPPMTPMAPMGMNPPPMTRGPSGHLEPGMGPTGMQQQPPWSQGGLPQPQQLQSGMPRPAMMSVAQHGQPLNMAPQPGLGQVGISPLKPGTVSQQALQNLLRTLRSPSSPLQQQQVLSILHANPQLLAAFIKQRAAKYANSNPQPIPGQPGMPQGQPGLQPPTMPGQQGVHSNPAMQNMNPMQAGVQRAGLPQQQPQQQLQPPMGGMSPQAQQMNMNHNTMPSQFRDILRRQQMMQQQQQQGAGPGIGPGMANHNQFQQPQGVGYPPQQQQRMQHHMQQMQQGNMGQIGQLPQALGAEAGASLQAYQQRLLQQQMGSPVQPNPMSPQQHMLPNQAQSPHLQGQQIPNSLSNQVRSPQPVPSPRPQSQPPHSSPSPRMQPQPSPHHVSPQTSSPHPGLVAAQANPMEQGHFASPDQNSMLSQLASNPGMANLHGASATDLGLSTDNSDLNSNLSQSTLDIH
Description: Using the radioisotope FlashPlate technology, the half inhibitory concentration (IC50) of the compound according to the present invention was detected against histone acetylase p300 (purchased from BPS). […] Under the catalysis of histone acetylase p300, [3H]—Ac group in the isotope-labeled [3H]-Ac-CoA was transferred to the biotinylated histone polypeptide substrate (purchased from GL Biochem Ltd.), and then the biotinylated histone peptide substrate bound to the streptavidin on the FlashPlate board, so that the isotope was close enough to the FlashPlate board. Thus, the radiation energy of isotope could convert the scintillation fluid coated on the FlashPlate board into photons, that was able to be detected. Detailed procedures were as follows:
• 1× reaction buffer: 50 mM Tris-HCl, pH 7.5; 0.01% Tween-20 • Reaction stop solution: 750 μM Ac-CoA solution
Each test compound was dissolved into 10 mM with 100% DMSO, and then each compound was diluted to the desired concentration in Echo 384-well plate. […] 200 nl of 100% DMSO was transferred into the well as the negative control.
p300 was added to 1× reaction buffer to form a 2× enzyme solution (the final concentration of enzyme being 0.2 nM).
The peptide substrate and [3H]-Ac-CoA were added to the 1-fold reaction buffer, to form a 2-fold substrate solution (the final concentration of the substrate being 600 nM and 250 nM, respectively).
10 μl of 2-fold enzyme solution was added to the wells of 384-well reaction plate. […] The plate was centrifuged at 1000 rpm for 1 min and incubated at room temperature for 15 min.
10 μl of 2-fold substrate solution was added to each well of 384-well reaction plate. The plate was centrifuged at 1000 rpm for 1 min, and then reacted at 25° C. for 60 min.
10 μl of reaction stop solution was added to each well of 384-well reaction plate to stop the reaction. 25 μL solution was collected from each well of the test plate and transferred to Flashplate, that was placed at room temperature for 1 h. Then, Flashplate plate was washed three times with 0.1% Tween-20 solution.
4) Reading Data with MicroBeta 2
The data were copied from Microbeta 2. […] The maximum value is the conversion rate of the control DMSO, and the minimum value is the conversion rate of the control without enzyme activity.
The data were imported into Graph Pad Prism5, and the formula “log(inhibitor) vs. response−Variable slope” was used to perform curve fitting, to obtain the half inhibitory concentration (IC50).

[2] = system: CWR22RV1 cells; assay: Inhibition of proliferation of CWR22RV1 cells (CCK-8); format: cell-based, human; conditions: 6 days culture
Method in brief: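 CWR22RV1 cells (1500/well) were exposed to 9 three-fold compound concentrations (top final 10 μM, 0.1% DMSO) for 6 days. CCK-8 was added for 2.5 h, and absorbance was read at 450 nm. IC50 was fitted with a dose-response-inhibition equation.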

[3] = Homo sapiens, CWR22Rv1, 144 h, read-out: IC50 against CWR22RV1 cells
[4] = Homo sapiens, CWR22Rv1, 144 h, read-out: IC50 against CWR22RV1 cells (text)
[5] = read-out: IC50 against CWR22RV1 cells

SMILES	IC50 [1] [nM]	IC50 [2, 3] [nM]	IC50 [2, 4] [nM]	IC50 [2, 5] [nM]
CNC(=O)Nc1ccc2c(c1)CC[C@@]21OC(=O)N(CC(=O)N2[C@H](C)CC[C@@H]2c2ccc(F)cc2)C1=O [Example 17, 1-((R)-3′-(2-((2R,5R)-2-(4-fluorophenyl)-5-methylpyrrolidin-1-yl)-2-oxoethyl)-2′,4′-dioxo-2,3-dihydrospiro[indene-1,5′-oxazolidine]-5-yl)-3-methylurea]	3600	> 2000		
CNC(=O)Nc1ccc2c(c1)CC[C@@]21OC(=O)N(CC(=O)N2C(c3ccc(F)cc3C)CC[C@H]2C)C1=O (some centres unmarked) [Example 21]	17			≤ 500
CC[C@H]1CC[C@@H](c2ccc(F)cc2)N1C(=O)CN1C(=O)O[C@@]2(CCc3cc(NC(=O)NC)ccc32)C1=O [Example 43, 1-((R)-3′-(2-((2S,5S)-2-ethyl-5-(4-fluorophenyl)pyrrolidin-1-yl)-2-oxoethyl)-2′,4′-dioxo-2,3-dihydrospiro[indene-1,5′-oxazolidine]-5-yl)-3-methylurea]	3.1	≤ 500	≤ 500	
CNC(=O)Nc1ccc2c(c1)C1(CC1)CC21OC(=O)N(CC(=O)N(Cc2ccc(F)cc2)[C@@H](C)C(F)(F)F)C1=O (stereo partly drawn) [Example 98, 2-(5-(3-methylureido)-2′,4′-dioxo-2,3-dihydrospiro[cyclopropane-indene-1,5′-oxazole]-3′-yl)-N-(4-fluorobenzyl)-N—((S)-1,1,1-trifluoropropan-2-yl)acetamide]	26	500 to 2000		
CC(=O)Nc1ccc2c(c1)CC[C@@]21OC(=O)N(CC(=O)N2[C@@H](C)CC[C@H]2c2ccc(F)cc2)C1=O [Example 114, N—((R)-3′-(2-((2S,5S)-2-(4-fluorophenyl)-5-methylpyrrolidin-1-yl)-2-oxoethyl)-2′,4′-dioxo-2,3-dihydrospiro[indene-1,5′-oxazolidine]-5-yl)acetamide]	26	500 to 2000		
COC(=O)Nc1ccc2c(c1)CC[C@@]21OC(=O)N(CC(=O)N2[C@@H](C)CC[C@H]2c2ccc(F)cc2)C1=O [Example 115, ((R)-3′-(2-((2S,5S)-2-(4-fluorophenyl)-5-methylpyrrolidin-1-yl)-2-oxoethyl)-2′,4′-dioxo-2,3-dihydrospiro[indene-1,5′-oxazolidine]-5-yl)carbamic acid methyl ester]	64	> 2000		
CNC(=O)Nc1ccc2c(c1)CC[C@@]21OC(=O)N(CC(=O)N2[C@@H](C)CC[C@H]2c2ccc(F)c(Cl)c2)C1=O [Example 213, 1-((R)-3′-(2-((2S,5S)-2-(3-chloro-4-fluorophenyl)-5-methylpyrrolidin-1-yl)-2-oxoethyl)-2′,4′-dioxo-2,3-dihydrospiro[indene-1,5′-oxazolidine]-5-yl)-3-methylurea]	13		≤ 500	≤ 500
CNC(=O)Nc1ccc2c(c1)CC[C@@]21OC(=O)N(CC(=O)N2CCC[C@H]2c2ccccc2)C1=O [Example 225, 1-((R)-2′,4′-dioxo-3′-(2-oxo-2-((S)-2-phenylpyrrolidin-1-yl)ethyl)-2,3-dihydrospiro[indene-1,5′-oxazolidine]-5-yl)-3-methylurea]	67	500 to 2000		
CNC(=O)Nc1ccc2c(c1)CC[C@@]21OC(=O)N(CC(=O)N2C(C)CCC2c2ccc(OC)cc2)C1=O (stereo partly drawn) [Example 350, 1-((1R)-3′-(2-(2-(4-methoxyphenyl)-5-methylpyrrolidin-1-yl)-2-oxoethyl)-2′,4′-dioxo-2,3-dihydrospiro[indene-1,5′-oxazolidine]-5-yl)-3-methylurea]	33	500 to 2000		
CNC(=O)Nc1ccc2c(c1)CC[C@@]21OC(=O)N(CC(=O)N2[C@@H](COC)CC[C@H]2c2ccc(F)cc2)C1=O [Example 362, 1-(3′-(2-((2S,5R)-2-(4-fluorophenyl)-5-(methoxymethyl)pyrrolidin-1-yl)-2-oxoethyl)-2′,4′-dioxo-2,3-dihydrospiro[indene-1,5′-oxazolidine]-5-yl)-3-methylurea]	15	≤ 500	≤ 500	
C[C@H]1CC[C@@H](c2ccc(F)cc2)N1C(=O)CN1C(=O)O[C@@]2(CCc3cc(NC(=O)NC4CC4)ccc32)C1=O [Example 371, 1-((R)-3′-(2-((2S,5S)-2-(4-fluorophenyl)-5-methylpyrrolidin-1-yl)-2-oxoethyl)-2′,4′dioxo-2,3-dihydrospiro[indene-1,5-oxazolidine]-5-yl)-3-cyclopropylurea]	3.1	500 to 2000		

More lines, in order of falling IC50 [1], values ahead:

IC50 [1] [nM]	SMILES	IC50 [2, 3] [nM]	IC50 [2, 4] [nM]	IC50 [2, 5] [nM]
103	CNC(=O)Nc1ccc2c(c1)CC[C@@]21OC(=O)N(CC(=O)N2C(c3ccc(F)cc3F)CC[C@@H]2C)C1=O (stereo partly drawn) [Example 370, 1-((R)-3′-(2-((5S)-2-(2,4-difluorophenyl)-5-methylpyrrolidin-1-yl)-2-oxoethyl)-2′,4′-dioxo-2,3-dihydrospiro[indene-1,5′-oxazolidine]-5-yl)-3-methylurea]	> 2000		
84	CNC(=O)Nc1ccc2c(c1)CC[C@@]21OC(=O)N(CC(=O)N2CCCC2c2ccccc2OC)C1=O (stereo partly drawn) [Example 319, 1-((1R)-3′-(2-(2-(2-methoxyphenyl)pyrrolidin-1-yl)-2-oxoethyl)-2′,4′-dioxo-2,3-dihydrospiro[indene-1,5′-oxazolidine]-5-yl)-3-methylurea]	> 2000		
11	CNC(=O)Nc1ccc2c(c1)CC[C@@]21OC(=O)N(CC(=O)N2[C@@H](C)CC[C@H]2C2CCC(F)(F)CC2)C1=O [Example 209, 1-((R)-3′-(2-((2S,5S)-2-(4,4-difluorocyclohexyl)-5-methylpyrrolidin-1-yl)-2-oxoethyl)-2′,4′-dioxo-2,3-dihydrospiro[indene-1,5′-oxazolidine]-5-yl)-3-methylurea]	≤ 500	≤ 500	
9.3	CCC1CC[C@@H](C2CCC(F)(F)CC2)N1C(=O)CN1C(=O)O[C@@]2(CCc3cc(NC(=O)NC)ccc32)C1=O (stereo in doubt) [Example 212, 1-((R)-3′-(2-((2S,5R)-2-(4,4-difluorocyclohexyl)-5-ethyl-pyrrolidin-1-yl)-2-oxoethyl)-2′,4′-dioxo-2,3-dihydrospiro[indene-1,5′-oxazolidine]-5-yl)-3-methylurea]	≤ 500	≤ 500	
7.5	CNC(=O)Nc1ccc2c(c1)CC[C@@]21OC(=O)N(CC(=O)N2C(C)CCC2C2CCCCC2)C1=O (stereo partly drawn) [Example 96, 1-((1R)-3′-(2-(2-cyclohexyl-5-methylpyrrolidin-1-yl)-2-oxoethyl)-2′,4′-dioxo-2,3-dihydrospiro[indene-1,5′-oxazolidine]-5-yl)-3-methylurea]	≤ 500		
5.7	CNC(=O)Nc1ccc2c(c1)CC[C@@]21OC(=O)N(CC(=O)N2[C@@H](C)CC[C@H]2c2ccc(F)cc2)C1=O [Example 14, 1-((R)-3′-(2-((2S,5S)-2-(4-fluorophenyl)-5-methylpyrrolidin-1-yl)-2-oxoethyl)-2′,4′-dioxo2,3-dihydrospiro[indene-1,5′-oxazolidine]-5-yl)-3-methylurea]	≤ 500	≤ 500	
5.5	CNC(=O)Nc1ccc2c(c1)CC[C@@]21OC(=O)N(CC(=O)N2[C@@H](C)CC[C@H]2c2ccc(F)cc2F)C1=O [Example 217, 1-((R)-3′-(2-((2S,5S)-2-(2,4-difluorophenyl)-5-methylpyrrolidin-1-yl)-2-oxoethyl)-2′,4′-dioxo-2,3-dihydrospiro[indene-1,5′-oxazolidine]-5-yl)-3-methylurea]	≤ 500	≤ 500	
5.1	CNC(=O)Nc1ccc2c(c1)CC[C@@]21OC(=O)N(CC(=O)N2C(C3CC3)CC[C@H]2c2ccc(F)cc2)C1=O (stereo in doubt) [Example 380, 1-((R)-3′-(2-((2S,5S)-2-cyclopropyl-5-(4-fluorophenyl)pyrrolidin-1-yl)-2-oxoethyl)-2′,4′-dioxo-2,3-dihydrospiro[indene-1,5′-oxazolidine]-5-yl)-3-methylurea]	≤ 500	≤ 500	
4.5	CNC(=O)Nc1ccc2c(c1)CC[C@@]21OC(=O)N(CC(=O)N2[C@@H](C(C)C)CC[C@H]2c2ccc(F)cc2)C1=O [Compound 48]			
